# Test results: US20040072894A1, “Stable pharmaceutical formulation comprising a HMG-CoA reductase inhibitor” (priority 1998, published 2004)
# Test: pH of pravastatin sodium crystals kept in normal air, nitrogen or carbon dioxide atmosphere
# Assay type: physicochemical
# Procedure: Another observation was that carbon dioxide from the air can irreversibly bind to the active substance and can cause a drop of pH. This is illustrated by the following experiment: 5 g of pravastatin sodium were dissolved in 30 ml of methanol, the pH was adjusted to 10 with 3% aqueous solution of NaOH. 400 ml of ethylacetate were added and the crystals of pravastatin sodium were formed. Crystals were filtered and dried and then put into three different atmospheres: normal air, nitrogen atmosphere and carbon dioxide atmosphere. In normal air and in the nitrogen atmosphere the pH remained the same during a period of 24 hours (normal air: 9.2, nitrogen: 9.5), but in the carbon dioxide atmosphere the pH dropped in the first two minutes from 9.2 to 6.9. After 12 minutes the pH was 6.6 and after 1 hour the pH was 6.5. After that, the pH remained constant. The third observation is that a sufficient stabilization of the active substance is already obtained at a pH of at least 7.0, but a beneficially high stability is effected at a pH of at least 8.0. We have noticed that at a pH below 8 the formation of lactone has occured and also the amount of other impurities has increased. The presence of humidity in the air and a carbon dioxide-rich atmosphere makes the negative effect of a low pH even stronger. This is illustrated by the following experiment: Pravastatin was dissolved in different buffers with the pH in a range between 7 and 11 (F=phosphate, C=citrate, B=borate). The occurrence of pravastatin in lactone form and the formation of different degradation products (impurities) was measured after 1, 5, 13 and 28 days.
smiles,measurement,setting,value
"CC[C@H](C)C(=O)O[C@H]1C[C@H](O)C=C2C=C[C@H](C)[C@H](CC[C@@H](O)C[C@@H](O)CC(=O)O)[C@H]21 [Pravastatin sodium, pravastatin sodium]",pH,"carbon dioxide atmosphere, after 12 minutes",6.6
same,pH,"carbon dioxide atmosphere, after 1 hour",6.5
same,pH,"carbon dioxide atmosphere, after the first two minutes",6.9
same,pH,"carbon dioxide atmosphere, starting value",9.2
same,pH,"crystals in nitrogen atmosphere, remained the same during 24 hours",9.5
same,pH,"crystals in normal air, remained the same during 24 hours",9.2
